Legend:
[1] = test system: partially purified human histone deacetylase; experiment: Activity of partially purified human histone deacetylase ([3H]acetyl histone assay); format: biochemical; details: for Effect on histone deacetylase activity (in words): summary of Table 5
Procedure: Effect on Activity of Partially Purified Human Histone Deacetylase
The partial purification of human histone deacetylase, the preparation of [^3H] acetyl histones, and the assay for histone deacetylase activity were basically performed according to the method as proposed by Yoshida et al. as follows.
Partial Purification of Human Histone Deacetylase—The human histone deacetylase was partially purified from human T cell leukemia Jurkat cells. Jurkat cells (5×10^8cells) were suspended in 40 ml of the HDA buffer consisting of 15 mM potassium phosphate, pH 7.5, 5% glycerol and 0.2 mM EDTA. After homogenization, nuclei were collected by centrifugation (35,000 ×g, 10 min) and homogenized in 20 ml of the same buffer supplemented with 1 M (NH4)2SO4. The viscous homogenate was sonicated and clarified by centrifugation (35,000 ×g, 10 min), and the deacetylase was precipitated by raising the concentration of (NH4)2SO4 to 3.5 M. The precipitated protein was dissolved in 10 ml of the HDA buffer and dialyzed against 4 liters of the same buffer. The dialyzate was then loaded onto a DEAE-cellulose (Whatman DE52) column (25×85 mm) equilibrated with the same buffer and eluted with a linear gradient (0-0.6 M) of NaCl (300 ml). A single peak fraction of histone deacetylase activity was eluted between 0.3 and 0.4 M NaCl.
Preparation of [^3H] Acetyl Histones—To obtain [^3H]acetyl-labeled histones as the substrate for the histone deacetylase assay, 1×10^8 cells of Jurkat in 20 ml of RPMI-1640 medium supplemented with 10% FBS, penicillin (50 units/ml) and streptomycin (50 μg/ml) were incubated with 300 MBq [^3H] sodium acetate in the presence of […] sodium butyrate for 30 min in 5% CO2-95% air atmosphere at 37° C. in a 75 cm2 flask, harvested into a centrifuge tube (50 ml), collected by centrifugation at 1000 rpm for 10 min, and washed once with phosphate-buffered saline. The washed cells were suspended in 15 ml of ice-cold lysis buffer (10 mM Tris-HCl, 50 mM sodium bisulfite, 1% Triton X-100, 10 mM MgCl2, 8.6% sucrose, pH 6.5). After Dounce homogenization (30 stroke), the nuclei were collected by centrifugation at 1000 rpm for 10 min, washed three times with 15 ml of the lysis buffer, and once with 15 ml of ice-old washing buffer (10 mM Tris-HCl, 13 mM EDTA, pH 7.4) successively. The pellet was suspended in 6 ml of ice-cold water using a mixer, and […] of H2SO4 was added to the suspension to give a concentration of 0.4 N. After incubation at 4° C. for 1 hour, the suspension was centrifuged for 5 min at 15,000 rpm, and the supernatant was taken and mixed with 60 ml of acetone. After overnight incubation at −20° C., the coagulated material was collected by microcentrifugation, air-dried, and stored at […].
Assay for Histone Deacetylase Activity—For the standard assay, 10 μl of [^3H]acetyl-labeled histones was added to 90 μl of the enzyme fraction, and the mixture was incubated at 25° C. for 30 min. The reaction was stopped by addition of 10 μl of HCl. The released [^3H]acetic acid was extracted with 1 ml of ethyl acetate, and 0.9 ml of the solvent layer was taken into 10 ml of toluene scintillation solution for determination of radioactivity.

[2] = Solubility in solvents (physico-chemical properties); format: physicochemical; details: solvents in which soluble
[3] = test system: murine lymphocyte blastogenesis induced by anti-CD3 antibody (splenic cells of Balb/c mice); experiment: Lymphocyte blastogenesis test (MTT dye reduction); format: cell-based; details: for Inhibition (%): 72 hours
Procedure: Effect on Lymphocyte Blastogenic Response
The lymphocyte blastogenesis test was performed in microtiter plates with each well containing 1×10^5 splenic cells of Balb/c mice in 0.1 ml RPMI-1640 medium supplemented with 10% fetal bovine serum (FBS), […] 2-mercaptoethanol, penicillin (100 units/ml) and streptomycin (100 μg/ml), to which anti-CD3 antibody (2C11) (1 μg/ml) was added. The cells were incubated at 37° C. in a humidified atmosphere of 5% CO2 for 72 hours. After the culture period, suppressive activities of the test samples in lymphocyte blastogenesis were quantified by an MTT [3-(4,5-dimethylthiazol-2-yl)-2,5-diphenyl-2H-tetrazolium bromide (MTT)] dye reduction assay.
WF27082 B was dissolved in methanol and further diluted in RPMI-1640 medium and added to the culture to give final concentrations of 50 ng/ml or less. FR235220 was dissolved in methanol and further diluted in RPMI-1640 medium and added to the culture to give final concentrations of 500 ng/ml or less. The results are shown in Table 2 and Table 3, respectively.

Structure (SMILES) | Inhibition (%) ([1]; 1 ng/ml) | Inhibition (%) ([1]; 10 ng/ml) | Inhibition (%) ([1]; 100 ng/ml) | Inhibition (%) ([1]; 1000 ng/ml) | Effect on histone deacetylase activity (in words) [1] | Solubility: Soluble [2] | Inhibition (%) ([3]; 4 ng/ml) | Inhibition (%) ([3]; 8 ng/ml) | Inhibition (%) ([3]; 16 ng/ml) | Inhibition (%) ([3]; 31 ng/ml) | Inhibition (%) ([3]; 63 ng/ml) | Inhibition (%) ([3]; 125 ng/ml) | Inhibition (%) ([3]; 250 ng/ml) | Inhibition (%) ([3]; 500 ng/ml) | Effect on murine lymphocyte blastogenesis (in words) ([3]; summary of Tables 2 and 3)
CC1CC2C(=O)NC(CCCCCC(=O)C(C)O)C(=O)NC(C)(C)C(=O)NC(Cc3ccccc3)C(=O)N2C1 (centres unmarked) [WF27082 F] | 11.4 | 36.5 | 74.1 | 91.7 | potently inhibited | methanol, chloroform, ethyl acetate, dimethyl sulfoxide | – | – | – | – | – | – | – | – | –
CC(O)C(=O)CCCCCC1NC(=O)C2CCCN2C(=O)C(Cc2ccccc2)NC(=O)C(C)(C)NC1=O (centres unmarked) [FR235220] | −13.1 | 33.7 | 74.6 | 94.6 | potently inhibited | – | −23.4 | −1.3 | 45.1 | 106.0 | 125.3 | 127.2 | 126.0 | 126.0 | suppressed murine lymphocyte blastogenesis induced by anti-CD3 antibody in a dose-dependent manner
CCC1(C)NC(=O)C(CCCCCC(=O)C(C)O)NC(=O)C2CCCN2C(=O)C(Cc2ccccc2)NC1=O (centres unmarked) [WF27082 E] | 11.1 | 57.6 | 88.5 | 104.9 | potently inhibited | methanol, chloroform, ethyl acetate, dimethyl sulfoxide | – | – | – | – | – | – | – | – | –

From patent US6656905B1, “Cyclic tetrapeptide compound and use thereof” (Fujisawa Pharmaceutical Co., Ltd., priority 1998, dated 2003)
